Here are results for one compound from patent publication US20030203963A1, “Antimicrobial agent” (priority 2001, published 2003).

Experiment [1] concerns B. cereus 204. Nature of the experiment: Chicken soup trial at 20° C. Format: cell-based, Bacillus cereus. Conditions: chicken soup at 20° C., TCSM010430, APP20010213. The text has this:
A local supermarket brand of cream of chicken soup was used as a model food system. 600 g packs were purchased from the local supermarket. This was a ‘fresh home-made type’ of soup that was stored in the chill cabinet, with a short shelf life. It was chosen because it is a rich, nutritious food system containing a range of food components including meat, dairy and vegetable.
Ingredients were labelled as: chicken stock (water, duck fat, chicken, salt, flavourings, yeast extracts, pork gelatine, glucose syrup, vegetable concentrate, milk protein, sugar, malto-dextrin, vegetable oil, citric acid, lactose, chicken fat), ilk, chicken (9%), cream (8%), onion, potato, vegetable oil, modified maize starch, wheat flour, lemon juice, salt, white pepper. pH 5.912. Protein: 3.3%; carbohydrate: 4.7%; fat: 7.2%; fibre: 0.2%; sodium: 0.1%
For the test the soup was mixed 2:1 in water (to facilitate sampling and mixing) and sterilised by autoclaving at 121° C. for 15 minutes. For each experiment the pH of the soup was recorded; this was between pH 5.79-5.88.
For TCS010430/20 (incubated at 20° C.) samples were prepared in 18.8 g quantities, to which 1 g of a suitable filter-sterilised APP stock solution was added and an appropriately diluted 0.2 ml inoculum. Great care was again taken to ensure homogeneous distribution of the APP and micro-organisms. This test was sampled by viable count test on a daily basis.

Experiment [2] relates to Br. thermosphacta CRA78884. The experiment in a line: Test in cooked sausage meat slurry. Format: cell-based, Brochothrix thermosphacta. The settings on record: 500 ppm; cooked sausage meat slurry at 8° C., pH 6.2, TSM010605. The text has this:
500 g of bologna sausage meat mixture was mixed with 500 g Brain Heart Infusion broth (BHIB) to make a homogeneous slurry. The bologna sausage meat mix comprised (g per kg): lean beef 320; lean pork 202; lard 250; water 40; glucose 5; starch 155; spice mix 3.75; sodium glutamate 0.5; sodium erythorbate 0.545; sodium di-phosphate 3; NaCl 20; sodium nitrite 0.15. 200 g samples of the meat slurry were autoclaved. While the meat was still warm it was re-mixed thoroughly. When the meat had cooled it was inoculated with 2 ml of 10^5 cfu/ml spore or cell suspension, and re-mixed again. […] The meat slurry was again shaken thoroughly to ensure even mixing, an initial viable count was taken and the samples incubated at 8° C. Samples were taken at twice-weekly intervals. The pH of the sausage meat slurry was 6.2.

Experiment [3] has as its system Br. thermosphacta CRA78883. Nature of the experiment: Test in cooked minced beef slurry. Conditions: 2000 ppm; minced beef slurry at 8° C., pH 6.24, TCM010619. The class given is cell-based, Brochothrix thermosphacta. Here is the method: 1 kg of minced beef, purchased from the local butcher, was mixed with 1 litre of BHI. 200 g portion of this meat slurry was autoclaved. When the meat had cooled, the pH was recorded (pH 6.24), and each pot was inoculated with 2.0 ml of 10^5 spores or cells and the meat re-mixed thoroughly. Each inoculated 200 g pot was distributed as 3×50 g portions. To each pot 1 ml of SDW, 5% or 10% APP (Batch No. APP20010215) was added, and the meat was again mixed thoroughly. An initial viable count was performed, the meat was incubated at 8° C. and sampled twice weekly. The pH of the cooked minced beef slurry was 6.24.

Experiment [4] relates to Ent. aerogenes 10102. Nature of the experiment: Bioscreen growth inhibition test. Format: cell-based, Enterobacter aerogenes. The settings on record: BS010510, 24 h/30, APP20010213. How it is done: For broth cultures and Bioscreen testing most bacteria were grown in Brain Heart Infusion (BHI, Oxoid, pH 7.4). Lactobacillus sake A10 was grown in de Man, Rogosa, Sharpe medium ([…], Oxoid). Yeasts were grown in Sabouraud Liquid medium (SLM, Oxoid). Most bacteria were cultured at 30° C. Lactic acid bacteria were grown on solid medium in enriched CO2 atmosphere. Clostridium species were grown in Reinforced Clostridial Medium (RCM) at 37° C. anaerobically. Brochothrix thermosphacta fungi and yeasts were grown at 25° C. Fungi were cultured on Malt Extract Agar (MEA, Oxoid).
An automated Microbiology Reader Bioscreen C was used to measure growth curves of the strains in the presence and absence of APP. The Bioscreen C measures the development of turbidity (i.e. growth) kinetically by vertical photometry in 200 wells of a honeycomb microtitre plate, simultaneously. The system consists of a Bioscreen C analyser, which is an incubator and measurement unit, integrated with a PC, software (BioLink v 5.30), printer and a ‘Honeycomb 2’ cuvette multiwell plate. Growth curve data can be analysed within the BioLink software or exported to programs such as Excel.
Broth culture media were dispensed in 270 μl volumes into the wells as directed. […] (depending on the micro-organism under investigation) with readings taken every 20 minutes after the trays were shaken. […]

For experiment [5], the system named is B. cereus 204. Nature of the experiment: Test in cooked sausage meat slurry. Format: cell-based, Bacillus cereus. The text has this:
500 g of bologna sausage meat mixture was mixed with 500 g Brain Heart Infusion broth (BHIB) to make a homogeneous slurry. The bologna sausage meat mix comprised (g per kg): lean beef 320; lean pork 202; lard 250; water 40; glucose 5; starch 155; spice mix 3.75; sodium glutamate 0.5; sodium erythorbate 0.545; sodium di-phosphate 3; NaCl 20; sodium nitrite 0.15. 200 g samples of the meat slurry were autoclaved. While the meat was still warm it was re-mixed thoroughly. When the meat had cooled it was inoculated with 2 ml of 10^5 cfu/ml spore or cell suspension, and re-mixed again. Each inoculated meat sample was divided into 3×50 g samples, and 1 ml of either SDW, 2.5% or 5% APP solution (batch number APP 20010215) was added to prepare meat samples containing 0, 500 and 1000 ppm APP. The meat slurry was again shaken thoroughly to ensure even mixing, an initial viable count was taken and the samples incubated at 8° C. Samples were taken at twice-weekly intervals. The pH of the sausage meat slurry was 6.2.

As for `O=C1CC(CO)OC=C1O` (stereo not drawn) [APP, Ascopyrone P], the Effect on growth entry in experiment [1] (500 ppm) was “No significant effect with 500 ppm”; in experiment [1] (1000 ppm), “Extension of lag with 1000 ppm”; in experiment [2], “No significant effect with 500 and 100 ppm”; in experiment [3], “No effect with 2000 ppm”; in experiment [5] (1000 ppm, cooked sausage meat slurry at 8° C., pH 6.2, TSM010605), “No total inhibition”. Besides, in experiment [1] (2000 ppm), the “Total inhibition for” value is given as “Total inhibition by 2000 ppm for >42 days”. Besides, in experiment [4], the “APP level causing total inhibition” value came to 4000 ppm. The “10^6 reached at” value in experiment [5] (1000 ppm, cooked sausage meat slurry at 8° C., TSM010605, controls 5 d) is listed as 7 d. In experiment [5] (Cooked sausage meat slurry at 8° C. pH 6.2, (1000)), the “Partial inhibition (effect on growth of target organism by APP)” value is given as “B. cereus (1000)”.
